Results on 33 compounds are retold here after patent publication US7423030B2, “1-amino-phthalazine derivatives, the preparation and the therapeutic use thereof” (Sanofi-Aventis, priority 2004, dated 2008).

Where a name gives a salt, the structure may show the parent alone.

Broadly, the melting point is the temperature, or range, at which the solid turns liquid.

As for `COc1ccc2c(COCc3ccccc3)nnc(NC3CCN(Cc4ccc5ccccc5c4)CC3)c2c1.Cl.Cl`, the melting point was determined as 284 °C. For `COc1ccc(-c2nnc(NC3CCN(Cc4ccc(CO)cc4)CC3)c3cc(OC)ccc23)cc1.Cl.Cl`, the melting point came to 139 °C.

`COc1ccc(-c2nnc(NC3CCN(Cc4ccc(CN)cc4)CC3)c3cc(OC)ccc23)cc1.Cl.Cl.Cl` registered a melting point of 203 °C. In the case of `COc1ccc2cnnc(NC3CCN(Cc4ccc5ccccc5c4)CC3)c2c1` (as salt: HCl) (hydrate or solvate) [Compound 70, 7-methoxy-N-[1-(2-naphthylmethyl)piperidin-4-yl]-phthalazin-1-amine] it was 189 °C; in that of `COc1ccc(-c2nnc(N[C@H]3CCN(Cc4ccc5ccccc5c4)C3)c3cc(OC)ccc23)cc1` (as salt: HCl) (hydrate or solvate) [Compound 96, 4-(4-Methoxyphenyl)-7-methoxy-N-[(3S)-1-(naphthalen-2-ylmethyl)pyrrolidin-3-yl]phthalazin-1-amine], 280 °C.

Compound `COC(=O)c1ccc(CN2CCC(Nc3nnc(-c4ccc(OC)cc4)c4ccc(OC)cc34)CC2)cc1` (as salt: HCl) (hydrate or solvate) [Compound 107, methyl {4-[(4-{[7-methoxy-4-(4-methoxyphenyl)phthalazin-1-yl]amino}piperidin-1-yl)methyl]phenyl}carboxylate] yielded a melting point of 241 °C. In turn, `COc1ccc(-c2nnc(NC3CCN(Cc4ccc(C#N)cc4)CC3)c3cc(OC)ccc23)cc1` (as salt: HCl) (hydrate or solvate) [Compound 108, N-[1-(4-cyanobenzyl)piperidin-4-yl)-7-methoxy-4-(4-methoxyphenyl)phthalazin-1-amine] registered a melting point of 270 °C. Turning to `COc1ccc(-c2nnc(NC3CCN(Cc4ccc(C(C)=O)cc4)CC3)c3cc(OC)ccc23)cc1` (as salt: HCl) (hydrate or solvate) [Compound 121, 1-{4-[(4-{[7-methoxy-4-(4-methoxyphenyl)phthalazin-1-yl]amino}piperidin-1-yl)methyl]phenyl}ethanone], the melting point came out at 241 °C. Take `COc1ccc2c(CO)nnc(NC3CCN(Cc4ccc5ccccc5c4)CC3)c2c1` (as salt: HCl) (hydrate or solvate) [Compound 148, 4-Hydroxymethyl-7-methoxy-N-[1-(naphthalen-2-ylmethyl)piperidin-4-yl]phthalazin-1-amine]: the melting point came to 186 °C. `COc1ccc(-c2nnc(NC3CCN(Cc4ccc(C)cc4)CC3)c3cc(OC)ccc23)cc1` (as salt: HCl) [Compound 75, 7-methoxy-4-(4-methoxyphenyl)-N-[1-(4-methylbenzyl)piperidin-4-yl]phthalazin-1-amine] returned a melting point of 148 °C. As for `COc1ccc(-c2nnc(NC3CC4CCC(C3)N4Cc3ccc4ccccc4c3)c3cc(OC)ccc23)cc1` (stereo not drawn) (as salt: salt) (hydrate or solvate), the figure is 176 °C; as for `COc1ccc2c(-c3ccccc3)nnc(NC3CCN(Cc4ccc5ccccc5c4)CC3)c2c1` (as salt: salt) (hydrate or solvate) [Compound 1, 7-methoxy-N-[1-(naphthalen-2-ylmethyl)piperidin-4-yl]-4-phenylphthalazin-1-amine], 121 °C; as for `COc1ccc2c(-c3ccccc3OC)nnc(NC3CCN(Cc4ccc5ccccc5c4)CC3)c2c1` (as salt: salt) (hydrate or solvate) [Compound 2, 7-methoxy-4-(2-methoxyphenyl)-N-[1-(naphthalen-2-ylmethyl)piperidin-4-yl]phthalazin-1-amine], 158 °C.

For `COc1ccc(-c2nnc(NC3CCN(Cc4ccc5ccccc5c4)CC3)c3cc(OC)ccc23)cc1` (as salt: salt) (hydrate or solvate) [Compound 3, 7-methoxy-4-(4-methoxyphenyl)-N-[1-(naphthalen-2-ylmethyl)piperidin-4-yl]phthalazin-1-amine], the melting point amounted to 195 °C.

With `COc1cccc(-c2nnc(NC3CCN(Cc4ccc5ccccc5c4)CC3)c3cc(OC)ccc23)c1` (as salt: salt) (hydrate or solvate) [Compound 5, 7-methoxy-4-(3-methoxyphenyl)-N-[1-(naphthalen-2-ylmethyl)piperidin-4-yl]phthalazin-1-amine], the melting point was found to be 154 °C. On to `COc1cccc(-c2nnc(NC3CCN(Cc4ccccc4)CC3)c3cc(OC)ccc23)c1` (as salt: salt) (hydrate or solvate) [Compound 6, N-(1-benzylpiperidin-4-yl)-7-methoxy-4-(3-methoxyphenyl)phthalazin-1-amine], for which the melting point was 176 °C. In turn, `COc1ccc(-c2nnc(NC3CCN(Cc4ccccc4)CC3)c3cc(OC)ccc23)cc1` (as salt: salt) (hydrate or solvate) [Compound 7, N-(1-benzylpiperidin-4-yl)-7-methoxy-4-(4-methoxyphenyl)phthalazin-1-amine] displayed a melting point of 150 °C. In turn, `COc1ccc2c(-c3cccs3)nnc(NC3CCN(Cc4ccccc4)CC3)c2c1` (as salt: salt) (hydrate or solvate) [Compound 8, N-(1-benzylpiperidin-4-yl)-7-methoxy-4-(thiophen-2-yl)phthalazin-1-amine] had a melting point of 115 °C. Turning to `COc1ccc(-c2nnc(NC3CCN(Cc4ccc5ccccc5c4)CC3)c3cc(C)ccc23)cc1` (as salt: salt) (hydrate or solvate) [Compound 9, 4-(4-methoxyphenyl)-7-methyl-N-[1-(naphthalen-2-ylmethyl)piperidin-4-yl]phthalazin-1-amine], the melting point was determined as 198 °C. Turning to `COc1ccc2c(-c3ccc(OC)c(OC)c3)nnc(NC3CCN(Cc4ccc5ccccc5c4)CC3)c2c1` (as salt: salt) (hydrate or solvate) [Compound 10, 4-(3,4-Dimethoxyphenyl)-7-methoxy-N-[1-(naphthalen-2-ylmethyl)piperidin-4-yl]phthalazin-1-amine], the melting point stood at 131 °C.

With `COc1cc(OC)c2cnnc(NC3CCN(Cc4ccccc4)CC3)c2c1` (as salt: salt) (hydrate or solvate) [Compound 13, N-(1-benzylpiperidin-4-yl)-5,7-dimethoxyphthalazin-1-amine], the melting point turned out to be 169 °C. `COc1cc(OC)c2cnnc(NC3CCN(Cc4ccc5ccccc5c4)CC3)c2c1` (as salt: salt) (hydrate or solvate) [Compound 14, 5,7-dimethoxy-N-[1-(naphthalen-2-ylmethyl)piperidin-4-yl]phthalazin-1-amine] returned a melting point of 206 °C.

`COc1ccc2c(-c3ccc(C)s3)nnc(NC3CCN(Cc4ccccc4)CC3)c2c1` (as salt: salt) (hydrate or solvate) [Compound 16, N-(1-benzylpiperidin-4-yl)-7-methoxy-4-(5-methylthiophen-2-yl)phthalazin-1-amine] gave a melting point of 155 °C. In turn, `COc1ccc(-c2nnc(NC3CCN(Cc4cccc(C#N)c4)CC3)c3cc(OC)ccc23)cc1` (as salt: salt) (hydrate or solvate) [Compound 18, N-[1-(3-cyanophenylmethyl)-piperidin-4-yl]-7-methoxy-4-(4-methoxyphenyl)phthalazin-1-amine] displayed a melting point of 115 °C. As for `CCc1nnc(NC2CCN(Cc3ccc4ccccc4c3)CC2)c2cc(OC)ccc12` (as salt: salt) (hydrate or solvate) [Compound 20, 4-Ethyl-7-methoxy-N-[1-(naphthalen-2-ylmethyl)piperidin-4-yl]phthalazin-1-amine], the figure is 135 °C; as for `COc1ccc2c(Cc3ccccc3)nnc(NC3CCN(Cc4ccc5ccccc5c4)CC3)c2c1` (as salt: salt) (hydrate or solvate) [Compound 21, 4-Benzyl-7-methoxy-N-[1-(naphthalen-2-ylmethyl)piperidin-4-yl]phthalazin-1-amine], 104 °C; as for `CCc1nnc(NC2CCN(Cc3ccc4ccccc4c3)CC2)c2cc(OC)cc(OC)c12` (as salt: salt) (hydrate or solvate) [Compound 23, 5,7-Dimethoxy-4-ethyl-N-[1-(naphthalen-2-ylmethyl)piperidin-4-yl]phthalazin-1-amine], 250 °C. With `COc1ccc(-c2nnc(NC3CCN(Cc4ccc5occc5c4)CC3)c3cc(OC)ccc23)cc1` (as salt: salt) (hydrate or solvate) [Compound 26, N-[1-(1-benzofuran-5-ylmethyl)piperidin-4-yl]-7-methoxy-4-(4-methoxyphenyl)phthalazin-1-amine], the melting point was 160 °C. As to `COc1ccc(-c2nnc(NC3CCN(Cc4ccc(C)c(C)c4)CC3)c3cc(OC)ccc23)cc1` (as salt: salt) (hydrate or solvate) [Compound 29, N-[1-(3,4-dimethylbenzyl)piperidin-4-yl]-7-methoxy-4-(4-methoxyphenyl)phthalazin-1-amine], the melting point is 130 °C. The compound `COc1ccc(-c2nnc(NC3CCN(Cc4ccc5ncsc5c4)CC3)c3cc(OC)ccc23)cc1` (as salt: salt) (hydrate or solvate) [Compound 59, N-[1-(1,3-benzothiazol-6-ylmethyl)piperidin-4-yl]-7-methoxy-4-(4-methoxyphenyl)phthalazin-1-amine] came in with a melting point of 180 °C. The compound `COc1ccc(-c2nnc(NC3CCN(Cc4ccc5sccc5c4)CC3)c3cc(OC)ccc23)cc1` (as salt: salt) (hydrate or solvate) [Compound 60, N-[1-(1-benzothien-5-ylmethyl)piperidin-4-yl]-7-methoxy-4-(4-methoxyphenyl)phthalazin-1-amine] registered a melting point of 176 °C. In turn, `COc1ccc(-c2nnc(NC3CCN(Cc4c[nH]c5ccccc45)CC3)c3cc(OC)ccc23)cc1` (as salt: salt) (hydrate or solvate) [Compound 65, N-[1-(1H-indol-3-ylmethyl)piperidin-4-yl]-7-methoxy-4-(4-methoxyphenyl)phthalazin-1-amine] came in with a melting point of 257 °C.

For the compound `CCCCc1nnc(NC2CCN(Cc3ccc4ccccc4c3)CC2)c2cc(OC)ccc12` (as salt: salt) (hydrate or solvate) [Compound 67, 4-Butyl-7-methoxy-N-[1-(naphthalen-2-ylmethyl)piperidin-4-yl]phthalazin-1-amine], the melting point amounted to 101 °C.
